These results are taken from US9951064B2, “Azaindazole compounds as inhibitors of T790M containing EGFR mutants” (Genentech, Inc., priority 2013, dated 2018).

The target of one test is T1, EGFR T790M L858R (Homo sapiens, UniProt P00533, L858R/T790M).
T1 construct: purchased Life Technologies PV4879
As to the kind of experiment: EGFR T790M L858R biochemical assay (Caliper mobility shift). As to conditions: 5 μM ATP; apparent Ki (Morrison fit) converted by Cheng-Prusoff, Km of ATP 1.3 μM. In a few lines:
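Reactions run 30 minutes at room temperature (22 °C), stopped with 80 mM EDTA. Phosphorylated product and substrate separated electrophoretically and quantified by Caliper mobility shift.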

A further test has as its target T2, EGFR del746-750 T790M (Homo sapiens, UniProt P00533, DEL746-750/T790M).
T2 construct: purchased Carna Biosciences 08-528
Kind of test: EGFR del746-750 T790M biochemical assay (Caliper mobility shift). As to conditions: 5 μM ATP; apparent Ki (Morrison fit) converted by Cheng-Prusoff, Km of ATP 2.1 μM; read-out: EGFR(T790M/d746-750) Ki. The procedure: The exemplified compounds described herein were tested according to the assay below. The enzyme data reported in Tables 4-5 is generally a representative of multiple experiments.
Reactions proceed for 30 minutes at room temperature (22° C.) and are terminated with 80 mM 2,2′,2″,2″′-(ethane-1,2-diyldinitrilo)tetraacetic acid (EDTA). Product is detected using the Caliper mobility shift detection method where product and substrate are electrophoretically separated and measured.

The target of test [1] is T3, phosphor-EGFR in H1975(L585R/T790M) mutant EGFR expressing cells (Homo sapiens, UniProt P00533, L858R/T790M).
T3 construct: host or cells: NCI-H1975
As to the kind of experiment: H1975 pEGFR MSD cellular assay. The format is cell-based. As to conditions: NCI-H1975 cells, serum starved, 1 hour compound incubation, pEGFR Tyr1068 MSD; read-out: HI975 pEGFR EC50. The method, boiled down: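 NCI-H1975 cells, 30,000/well, serum-starved overnight, then treated 1 hour at 37° C with serially diluted compounds in serum-free medium (0.5% DMSO). Lysates captured on anti-phospho-EGFR plates overnight at 4° C, detected with SULFO-TAG anti-total EGFR by electrochemiluminescence. Inhibition vs untreated controls; EC50 from 4-parameter logistic fit.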

Test [2] concerns H1975 (EGFR T790M/L858R) cell proliferation. Kind of test: H1975 proliferation assay (Cell Titer-Glo). As to conditions: Homo sapiens, NCI-H1975, 72 h, NCI-H1975 cells, 72 hour incubation, read-out: H1975 antiproliferative EC50. The format is cell-based. The procedure: H1975 Proliferation Assays
All cell culture reagents were purchased from Invitrogen/Gibco. Cells are cultured at 37° C. at 5% CO2 and split as recommended by ATCC.
On the technique in general: In ATP-based viability assays light output follows the ATP content of the culture.

pEC50, pKi: −log10 of the molar value. Where only a bound is given, the exact number is not on record here.

In general, pEC50 refers to −log10 of the EC50, conventionally taken in molar units.

T1 sequence (P00533 25-1210 T790M/L858R): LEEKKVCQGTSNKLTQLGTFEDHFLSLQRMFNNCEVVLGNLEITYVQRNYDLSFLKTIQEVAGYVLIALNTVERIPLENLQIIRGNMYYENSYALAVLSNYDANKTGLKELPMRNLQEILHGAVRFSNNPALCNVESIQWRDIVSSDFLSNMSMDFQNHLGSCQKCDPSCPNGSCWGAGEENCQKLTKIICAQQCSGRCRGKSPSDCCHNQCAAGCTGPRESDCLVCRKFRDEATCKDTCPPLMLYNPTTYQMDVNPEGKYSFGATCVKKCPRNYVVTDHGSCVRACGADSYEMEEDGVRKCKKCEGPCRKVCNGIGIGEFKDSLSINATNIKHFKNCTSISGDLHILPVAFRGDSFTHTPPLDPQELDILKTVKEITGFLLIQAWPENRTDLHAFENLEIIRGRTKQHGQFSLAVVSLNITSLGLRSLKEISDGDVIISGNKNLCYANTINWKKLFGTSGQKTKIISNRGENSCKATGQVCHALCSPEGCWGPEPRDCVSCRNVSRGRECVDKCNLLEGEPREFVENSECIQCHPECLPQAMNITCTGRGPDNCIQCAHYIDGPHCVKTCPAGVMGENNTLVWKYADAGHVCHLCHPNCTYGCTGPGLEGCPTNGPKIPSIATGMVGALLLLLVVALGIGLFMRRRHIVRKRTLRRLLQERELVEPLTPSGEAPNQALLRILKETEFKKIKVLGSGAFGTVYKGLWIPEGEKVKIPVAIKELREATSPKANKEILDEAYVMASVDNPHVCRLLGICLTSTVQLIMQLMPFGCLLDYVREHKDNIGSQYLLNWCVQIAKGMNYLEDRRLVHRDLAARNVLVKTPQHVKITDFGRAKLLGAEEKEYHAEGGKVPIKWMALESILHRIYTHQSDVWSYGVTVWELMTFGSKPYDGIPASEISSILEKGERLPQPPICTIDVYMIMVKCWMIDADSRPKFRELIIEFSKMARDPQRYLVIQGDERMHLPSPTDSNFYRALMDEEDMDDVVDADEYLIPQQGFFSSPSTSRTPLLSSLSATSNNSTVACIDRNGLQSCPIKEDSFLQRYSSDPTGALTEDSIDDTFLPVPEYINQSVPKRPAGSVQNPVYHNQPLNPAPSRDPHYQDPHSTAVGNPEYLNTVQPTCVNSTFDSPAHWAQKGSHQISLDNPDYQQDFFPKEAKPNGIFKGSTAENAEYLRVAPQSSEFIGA
T3 sequence (P00533 25-1210 T790M/L858R): as above
T2 sequence (P00533 with tags, fused parts or gaps DEL746-750/T790M limits assumed): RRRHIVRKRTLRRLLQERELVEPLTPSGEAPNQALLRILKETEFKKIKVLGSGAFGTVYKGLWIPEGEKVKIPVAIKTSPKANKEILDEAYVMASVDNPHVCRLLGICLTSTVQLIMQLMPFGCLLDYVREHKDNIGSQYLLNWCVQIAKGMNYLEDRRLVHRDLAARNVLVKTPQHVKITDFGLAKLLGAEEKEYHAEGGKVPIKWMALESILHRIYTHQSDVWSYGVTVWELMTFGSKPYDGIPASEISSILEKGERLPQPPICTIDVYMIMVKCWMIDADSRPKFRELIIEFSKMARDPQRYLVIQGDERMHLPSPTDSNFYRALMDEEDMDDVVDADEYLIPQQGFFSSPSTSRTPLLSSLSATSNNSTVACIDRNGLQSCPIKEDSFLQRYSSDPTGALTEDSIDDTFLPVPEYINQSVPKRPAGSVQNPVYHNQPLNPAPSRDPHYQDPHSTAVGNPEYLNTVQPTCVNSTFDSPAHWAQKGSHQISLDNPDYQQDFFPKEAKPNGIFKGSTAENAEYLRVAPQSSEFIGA

`CCC(C)n1nc(N2CC[C@@H](O)C2)c2cnc(Nc3ccnc(N4CCC(CC#N)(OC)CC4)n3)cc21` (mixture of isomers) [Example 81, 2-(1-(4-(1-sec-Butyl-3-((R)-3-hydroxypyrrolidin-1-yl)-1H-pyrazolo[4,3-c]pyridin-6-ylamino)pyrimidin-2-yl)-4-methoxypiperidin-4-yl)acetonitrile]: the figures for the pKi on EGFR T790M L858R and at EGFR del746-750 T790M were 8.19 and 8.15, respectively. The pEC50 in test [1] is 6.58; in test [2], 5.83.

On to `CCC(C)n1nc(N2CCNC2=O)c2cnc(Nc3ccnc(N4CC[C@H](OC)[C@H](F)C4)n3)cc21` (mixture of isomers) [Example 98, 1-{1-(sec-Butyl)-6-[2-((3R,4S)-3-fluoro-4-methoxypiperidin-1-yl)pyrimidin-4-ylamino]-1H-pyrazolo[4,3-c]pyridin-3-yl}imidazolidin-2-one], for which the pKi on EGFR T790M L858R was 9.00; on EGFR del746-750 T790M, 8.74. The pEC50 in test [1] is 7.40; in test [2] it was 6.59.

Consider `CCC(C)n1nc(N2C[C@@H](CO)NC2=O)c2cnc(Nc3ccnc(N4CCC(C)(O)CC4)n3)cc21` (mixture of isomers) [Example 176, (4S)-1-(1-sec-Butyl-6-(2-(4-hydroxy-4-methylpiperidin-1-yl)pyrimidin-4-ylamino)-1H-pyrazolo[4,3-c]pyridin-3-yl)-4-(hydroxymethyl)imidazolidin-2-one], for which the pKi at EGFR T790M L858R was 8.48; on EGFR del746-750 T790M, 7.92. Also, the values for the pEC50 in test [1] and in test [2] were 5.40 and below 5.00, respectively.

`CC(C)n1nc(N2CC3(COC3)C2)c2cnc(Nc3ccnc(N4CCC(O)C(F)C4)n3)cc21` (racemic) [Example 21, (±)-cis-3-Fluoro-1-{4-[1-isopropyl-3-(2-oxa-6-azaspiro[3.3]hept-6-yl)-1H-pyrazolo[4,3-c]pyridin-6-ylamino]-pyrimidin-2-yl}piperidin-4-ol]: the pKi on EGFR T790M L858R is 8.92; on EGFR del746-750 T790M, 8.52. The pEC50 is 7.44 in test [1] and 6.41 in test [2].

Turning to `CC(C)n1nc(N2CCNC2=O)c2cnc(Nc3ccnc(N4CCC(O)C(F)C4)n3)cc21` (racemic) [Example 22, (±)-1-(6-((2-(cis-3-Fluoro-4-hydroxypiperidin-1-yl)pyrimidin-4-yl)amino)-1-isopropyl-1H-pyrazolo[4,3-c]pyridin-3-yl)imidazolidin-2-one], the pKi is 8.27 at EGFR T790M L858R and 7.69 on EGFR del746-750 T790M. For the same compound, the results for the pEC50 in test [1] and in test [2] were 6.31 and below 5.52, respectively.

Take `COC1CCN(c2nccc(Nc3cc4c(cn3)c(N3CC5(COC5)C3)nn4C(C)C)n2)CC1F` (racemic) [Example 23, (±)-2-(cis-3-Fluoro-4-methoxypiperidin-1-yl)pyrimidin-4-yl]-[1-isopropyl-3-(2-oxa-6-azaspiro[3.3]hept-6-yl)-1H-pyrazolo[4,3-c]pyridin-6-yl]amine]: the pKi on EGFR T790M L858R was 8.96; on EGFR del746-750 T790M, 8.41. Moreover, the pEC50 in test [1] is 7.64; in test [2] it was 6.61.

As to `CC(C)n1nc(N2CC3(COC3)C2)c2cnc(Nc3ccnc(N4CC[C@](C)(O)[C@H](F)C4)n3)cc21` (racemic) [Example 64, (3RS,4SR)-3-Fluoro-1-{4-[1-isopropyl-3-(2-oxa-6-azaspiro[3,3]hept-6-yl)-1H-pyrazolo[4,3-c]pyridin-6-ylamino]pyrimidin-2-yl}-4-methylpiperidin-4-ol], the pKi on EGFR T790M L858R is 8.44; on EGFR del746-750 T790M, 7.79. Besides, the pEC50 in test [1] was 6.65; in test [2], 6.15.

Consider `CC(C)n1nc(N2CCO[C@@H](CO)C2)c2cnc(Nc3ccnc(N4CCC(O)C(F)C4)n3)cc21` (mixture of isomers) [Example 75, cis-3-Fluoro-1-(4-(3-((R)-2-(hydroxymethyl)morpholino)-1-isopropyl-1H-pyrazolo[4,3-c]pyridin-6-ylamino)pyrimidin-2-yl)piperidin-4-ol], for which the pKi is 8.39 at EGFR T790M L858R and 7.99 on EGFR del746-750 T790M. For the same compound, the results for the pEC50 in test [1] and in test [2] were 5.88 and 5.11, respectively.

With `CCC(C)n1nc(N2CC(O)(CO)C2)c2cnc(Nc3ccnc(N4CCC(C)(O)CC4)n3)cc21` (racemic) [Example 80, (±)-1-(4-(1-sec-Butyl-3-(3-hydroxy-3-(hydroxymethyl)azetidin-1-yl)-1H-pyrazolo[4,3-c]pyridin-6-ylamino)pyrimidin-2-yl)-4-methylpiperidin-4-ol], the pKi on EGFR T790M L858R was 8.39; at EGFR del746-750 T790M, 8.03. Besides, the pEC50 in test [1] was 5.36; in test [2], below 5.00.

As to `CC(C)n1nc(N2CC(C)(C)NC2=O)c2cnc(Nc3ccnc(N4CCC(O)C(F)C4)n3)cc21` (racemic) [Example 88, (±)-1-(6-(2-(cis-3-Fluoro-4-hydroxypiperidin-1-yl)pyrimidin-4-ylamino)-1-isopropyl-1H-pyrazolo[4,3-c]pyridin-3-yl)-4,4-dimethylimidazolidin-2-one], the pKi on EGFR T790M L858R was 8.74; at EGFR del746-750 T790M, 8.37. In addition, the pEC50 in test [1] was 6.73; in test [2] it was 6.31.

Regarding `CC(C)n1nc(N2CCC(C(N)=O)C2)c2cnc(Nc3ccnc(-c4cnn(S(=O)(=O)C5CC5)c4)n3)cc21` (stereo not drawn) [Example 60, 1-(6-(2-(1-(cyclopropylsulfonyl)-1H-pyrazol-4-yl)pyrimidin-4-ylamino)-1-isopropyl-1H-pyrazolo[4,3-c]pyridin-3-yl)pyrrolidine-3-carboxamide], the pKi on EGFR del746-750 T790M was 9.30. Also, the pEC50 was 7.55 in test [1] and 6.22 in test [2].

As for `CC(C)n1nc(NC2CNC(=O)C2)c2cnc(Nc3ccnc(N4CCC(C)(O)CC4)n3)cc21` (stereo not drawn) [Example 77, 4-(6-(2-(4-Hydroxy-4-methylpiperidin-1-yl)pyrimidin-4-ylamino)-1-isopropyl-1H-pyrazolo[4,3-c]pyridin-3-ylamino)pyrrolidin-2-one], the pKi on EGFR T790M L858R was 7.73; at EGFR del746-750 T790M, 7.53. Further, the pEC50 in test [2] was below 5.00.

On to `CC(O)C(=O)N1CCN(c2nn(C(C)C)c3cc(Nc4ccnc(N5CCC(C)(O)CC5)n4)ncc23)CC1` (stereo not drawn) [Example 136, 2-Hydroxy-1-(4-(6-(2-(4-hydroxy-4-methylpiperidin-1-yl)pyrimidin-4-ylamino)-1-isopropyl-1H-pyrazolo[4,3-c]pyridin-3-yl)piperazin-1-yl)propan-1-one], for which the pKi is 7.97 at EGFR T790M L858R and 7.40 at EGFR del746-750 T790M.

Consider `CC1COCC(C)N1c1nn(C(C)C)c2cc(Nc3ccnc(-c4cnn(S(=O)(=O)C5CC5)c4)n3)ncc12` (stereo not drawn) [Example 180, N-(2-(1-(Cyclopropylsulfonyl)-1H-pyrazol-4-yl)pyrimidin-4-yl)-3-(3,5-dimethylmorpholino)-1-isopropyl-1H-pyrazolo[4,3-c]pyridin-6-amine], for which the pKi on EGFR T790M L858R was 6.52; at EGFR del746-750 T790M it was 6.70. Also, in test [2], the pEC50 was below 5.00.

Regarding `CCC(C)n1nc(N2CC[C@H](O)C2=O)c2cnc(Nc3ccnc(N4CC[C@@H](O)[C@@H](F)C4)n3)cc21` (stereo partly drawn) [Example 201, (3S)-1-(1-(sec-Butyl)-6-((2-((3S,4R)-3-fluoro-4-hydroxypiperidin-1-yl)pyrimidin-4-yl)amino)-1H-pyrazolo[4,3-c]pyridin-3-yl)-3-hydroxypyrrolidin-2-one], the pKi on EGFR T790M L858R was 8.24; on EGFR del746-750 T790M it was 7.85. Moreover, in test [2], the pEC50 is below 5.00.
